Test results reported in article PMC3784060 (Cancer Chemotherapy and Pharmacology, 2013).

How the values were obtained:
HL-60, MOLT-4, K562 = conditions: 24 or 72 vs. 2 h
Method: Primary leukemia cells for in vitro studies were isolated from BM or PB obtained from AML or ALL patients enrolled on a separate University of Maryland, Baltimore, IRB-approved protocol for tissue collection and not treated on this clinical study. The cells were isolated by gradient centrifugation using LSM (Mediatech) according to the manufacturer’s protocol. Cells were used either fresh or after viable freezing (FBS/10 % DMSO). Primary leukemia cells were cultured in RPMI 1640 (Invitrogen, Grand Island, NY, USA) supplemented with 15 % heat-inactivated FBS (HyClone Laboratories Inc., Red Bank, NJ, USA) and 200 mM L-Glutamine (Invitrogen). Leukemia cell lines HL-60 (AML), MOLT-4 (T cell ALL), and K562 (chronic myelogenous leukemia [CML] in erythroid blast transformation) were purchased from American Type Culture Collection (ATCC, Manassas, VA, USA) and cultured in RPMI 1640 (Invitrogen) supplemented with 10 % heat-inactivated FBS (HyClone Laboratories Inc.) and 200 mM L-Glutamine (Invitrogen).

[1] = phase II study in acute leukemia: toxicity (NCI CTCAE version 3.0); type: in vivo, human
Method: The study was approved by the Institutional Review Board (IRB) at each participating institution and was conducted in accordance with the Declaration of Helsinki and in compliance with International Conference on Harmonization Good Clinical Practice Guidelines. Written informed consent was obtained from all patients before study enrollment.
Each cycle lasted 21 days. Patient could continue treatment on the study in the absence of disease progression or unacceptable toxicity. The next cycle of therapy could start if non-hematologic toxicity from previous cycle recovered to ≤grade 1, and dose delay of up to 3 weeks was allowed for recovery. Permanent dose reduction was required for any ≥grade 3 clinically significant non-hematologic adverse event (70 mg/m^2 → 50 mg/m^2; 50 mg/m^2 → 40 mg/m^2; 40 mg/m^2 → 30 mg/m^2; 30 mg/m^2 → discontinue). To allow for continued treatment of subjects whose cytopenias were due to leukemia and not due to drug toxicity, subsequent cycles of treatment were allowed if absolute neutrophil count (ANC) ≥0.5 × 10^9/L or for ANC <0.5 × 10^9/L but no more than 20 % below the baseline pretreatment levels and platelet count ≥20 × 10^9/L or platelets <20 × 10^9/L but no more than 20 % below the baseline pretreatment levels. Anti-emetic prophylaxis including serotonin-receptor antagonist, metoclopramide, or prochloperazine with or without dexamethasone was allowed. […] Dexamethasone 20 mg IV was given early if symptoms of cytokine release syndrome were observed.
Response was assessed by bone marrow (BM) examination on day 21 of cycles 1 and 2, and every 6 weeks thereafter until complete remission or progressive disease (PD). Response was determined according to the revised recommendations of the International Working Group (IWG) for AML [33]. Toxicities were graded according to the National Cancer Institute Common Terminology Criteria for Adverse Events (NCI CTCAE), version 3.0 (http://ctep.cancer.gov/protocolDevelopment/electronic_applications/docs/ctcaev3.pdf). Hematologic and chemistry profiles were monitored on day 1 and 2 of each cycle or until resolution of acute toxicities and subsequently at least once a week or more frequently depending on the individual patient’s needs.

[2] = dinaciclib-related hematologic toxicity

**Q.** Which results are given for `CCc1cnn2c(NCc3ccc[n+]([O-])c3)cc(N3CCCC[C@H]3CCO)nc12` [Dinaciclib]?
**A.** growth inhibitory and apoptosis-inducing effect of prolonged exposure (HL-60, MOLT-4, K562): more potent growth inhibitory and apoptosis-inducing effect; Grade ≥3 fatigue, patients ([1]; 4 patients): 20%; patients with grade ≥3 treatment-related adverse events ([1]; 15 of 20 patients): 75%; TLS-associated hyperkalemia, patients ([1]; Cairo-Bishop criteria, cycle 1): 25%; TLS-associated hyperphosphatemia, patients ([1]; Cairo-Bishop criteria, cycle 1): 30%; TLS-associated hyperuricemia, patients ([1]; Cairo-Bishop criteria, cycle 1): 10%; TLS-associated hypocalcemia, patients ([1]; Cairo-Bishop criteria, cycle 1): 25%; patients with at least one significant TLS-associated laboratory abnormality ([1]; Cairo-Bishop criteria, cycle 1): half of the patients; Acute renal failure, All (%) ([1]; Cycle 1 n = 20): 2 (10) patients (%); Acute renal failure, Grade ≥3 ([1]; Cycle 1 n = 20): 2 patients; Anorexia, All (%) ([1]; Cycle 1 n = 20): 1 (5) patients (%); Bacteremia, All (%) ([1]; Cycle 1 n = 20): 2 (10) patients (%); Bacteremia, Grade ≥3 ([1]; Cycle 1 n = 20): 2 patients; Cytokine release sy, All (%) ([1]; Cycle 1 n = 20): 2 (10) patients (%); Dehydration, All (%) ([1]; Cycle 1 n = 20): 1 (5) patients (%); Dehydration, Grade ≥3 ([1]; Cycle 1 n = 20): 1 patients; Diarrhea, All (%) ([1]; Cycle 1 n = 20): 14 (70) patients (%); Diarrhea, Grade ≥3 ([1]; Cycle 1 n = 20): 1 patients; Fatigue, All (%) ([1]; Cycle 1 n = 20): 6 (30) patients (%); Fatigue, Grade ≥3 ([1]; Cycle 1 n = 20): 2 patients; Hyperbilirubinemia, All (%) ([1]; Cycle 1 n = 20): 2 (10) patients (%); Hyperglycemia, All (%) ([1]; Cycle 1 n = 20): 4 (20) patients (%); Hyperglycemia, Grade ≥3 ([1]; Cycle 1 n = 20): 2 patients; Hyperkalemia, All (%) ([1]; Cycle 1 n = 20): 3 (15) patients (%); Hyperkalemia, Grade ≥3 ([1]; Cycle 1 n = 20): 2 patients; Hyperphosphatemia, All (%) ([1]; Cycle 1 n = 20): 5 (25) patients (%); Hyperphosphatemia, Grade ≥3 ([1]; Cycle 1 n = 20): 1 patients; Hypertension, All (%) ([1]; Cycle 1 n = 20): 1 (5) patients (%); Hypoalbuminemia, All (%) ([1]; Cycle 1 n = 20): 4 (20) patients (%); Hypocalcemia, All (%) ([1]; Cycle 1 n = 20): 6 (30) patients (%); Hypocalcemia, Grade ≥3 ([1]; Cycle 1 n = 20): 1 patients; Hypokalemia, All (%) ([1]; Cycle 1 n = 20): 2 (10) patients (%); Hyponatremia, All (%) ([1]; Cycle 1 n = 20): 2 (10) patients (%); Hyponatremia, Grade ≥3 ([1]; Cycle 1 n = 20): 1 patients; Hypotension, All (%) ([1]; Cycle 1 n = 20): 6 (30) patients (%); Hypotension, Grade ≥3 ([1]; Cycle 1 n = 20): 1 patients; Increased ALT, All (%) ([1]; Cycle 1 n = 20): 4 (20) patients (%); Increased AST, All (%) ([1]; Cycle 1 n = 20): 8 (40) patients (%); Increased AST, Grade ≥3 ([1]; Cycle 1 n = 20): 3 patients; Increased LDH, All (%) ([1]; Cycle 1 n = 20): 2 (10) patients (%); Increased LDH, Grade ≥3 ([1]; Cycle 1 n = 20): 2 patients; Increased creatinine, All (%) ([1]; Cycle 1 n = 20): 3 (15) patients (%); Increased creatinine, Grade ≥3 ([1]; Cycle 1 n = 20): 1 patients; Nausea, All (%) ([1]; Cycle 1 n = 20): 8 (40) patients (%); Nausea, Grade ≥3 ([1]; Cycle 1 n = 20): 1 patients; Pneumonia, All (%) ([1]; Cycle 1 n = 20): 2 (10) patients (%); Pneumonia, Grade ≥3 ([1]; Cycle 1 n = 20): 2 patients; Sinus Tachycardia, All (%) ([1]; Cycle 1 n = 20): 2 (10) patients (%); Stomatitis, All (%) ([1]; Cycle 1 n = 20): 1 (5) patients (%); Syncope, All (%) ([1]; Cycle 1 n = 20): 1 (5) patients (%); Syncope, Grade ≥3 ([1]; Cycle 1 n = 20): 1 patients; Tumor lysis sy, All (%) ([1]; Cycle 1 n = 20): 3 (15) patients (%); Tumor lysis sy, Grade ≥3 ([1]; Cycle 1 n = 20): 3 patients; Vomiting, All (%) ([1]; Cycle 1 n = 20): 9 (45) patients (%); Dehydration, All (%) ([1]; Cycle 2 n = 10): 1 (10) patients (%); Diarrhea, All (%) ([1]; Cycle 2 n = 10): 7 (70) patients (%); Diarrhea, Grade ≥3 ([1]; Cycle 2 n = 10): 1 patients; Fatigue, All (%) ([1]; Cycle 2 n = 10): 2 (20) patients (%); Fatigue, Grade ≥3 ([1]; Cycle 2 n = 10): 1 patients; Hyperbilirubinemia, All (%) ([1]; Cycle 2 n = 10): 1 (10) patients (%); Hyperkalemia, All (%) ([1]; Cycle 2 n = 10): 1 (10) patients (%); Hyperphosphatemia, All (%) ([1]; Cycle 2 n = 10): 1 (10) patients (%); Hypoalbuminemia, All (%) ([1]; Cycle 2 n = 10): 1 (10) patients (%); Hypotension, All (%) ([1]; Cycle 2 n = 10): 2 (20) patients (%); Increased ALT, All (%) ([1]; Cycle 2 n = 10): 1 (10) patients (%); Increased AST, All (%) ([1]; Cycle 2 n = 10): 1 (10) patients (%); Nausea, All (%) ([1]; Cycle 2 n = 10): 3 (30) patients (%); Pneumonia, All (%) ([1]; Cycle 2 n = 10): 1 (10) patients (%); Stomatitis, All (%) ([1]; Cycle 2 n = 10): 1 (10) patients (%); Stomatitis, Grade ≥3 ([1]; Cycle 2 n = 10): 1 patients; Syncope, All (%) ([1]; Cycle 2 n = 10): 1 (10) patients (%); Syncope, Grade ≥3 ([1]; Cycle 2 n = 10): 1 patients; Vomiting, All (%) ([1]; Cycle 2 n = 10): 2 (20) patients (%); Anorexia, All (%) ([1]; Cycle 3 n = 6): 1 (17) patients (%); Cytokine release sy, All (%) ([1]; Cycle 3 n = 6): 1 (17) patients (%); Cytokine release sy, Grade ≥3 ([1]; Cycle 3 n = 6): 1 patients; Diarrhea, All (%) ([1]; Cycle 3 n = 6): 2 (33) patients (%); Fatigue, All (%) ([1]; Cycle 3 n = 6): 1 (17) patients (%); Fatigue, Grade ≥3 ([1]; Cycle 3 n = 6): 1 patients; Hypertension, All (%) ([1]; Cycle 3 n = 6): 1 (17) patients (%); Increased ALT, All (%) ([1]; Cycle 3 n = 6): 1 (17) patients (%); Nausea, All (%) ([1]; Cycle 3 n = 6): 1 (17) patients (%); Vomiting, All (%) ([1]; Cycle 3 n = 6): 2 (33) patients (%); ≥grade 3 anemia, patients [1, 2]: 25%; ≥grade 3 febrile neutropenia, patients [1, 2]: 25%; ≥grade 3 leukopenia, patients [1, 2]: 40%; ≥grade 3 neutropenia, patients [1, 2]: 10%; ≥grade 3 thrombocytopenia, patients [1, 2]: 20%; Grade 1 and 2 diarrhea, patients ([1]; in vivo): 70%
